Measured values: patent US20140179664A1, “Heterocyclyl Pyrimidine Analogues As JAK Inhibitors” (Cellzome Limited, priority 2011, published 2014)

Tests used:
Type in all cases: binding
JAK2 = target: T1, JAK2 (Homo sapiens, UniProt O60674); assay: Kinobeads assay, JAK2; conditions: mixed Molt4/Ramos lysate, read-out: Inhibition values (IC50) JAK2
T1 construct: endogenous in cells; host or cells: Molt4 (ATCC CRL-1582) and Ramos (ATCC CRL-1596), mixed lysate 1:2
Summary of the method: (§1)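 IC50s come from capture competition: compound at various concentrations versus an immobilized aminopyrido-pyrimidine ligand for kinases in 1:2 Molt4/Ramos lysate (10 mg/mL), 3 h in a cold room. Captured JAK-family kinases were measured by specific-antibody dot blot with Odyssey infrared detection.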

JAK3 = target: T2, JAK3 (Homo sapiens, UniProt P52333); assay: Kinobeads assay, JAK3; conditions: mixed Molt4/Ramos lysate, read-out: Inhibition values (IC50) JAK3
T2 construct: endogenous in cells; host or cells: Molt4 (ATCC CRL-1582) and Ramos (ATCC CRL-1596), mixed lysate 1:2
T2 sequence (P52333 1-1124): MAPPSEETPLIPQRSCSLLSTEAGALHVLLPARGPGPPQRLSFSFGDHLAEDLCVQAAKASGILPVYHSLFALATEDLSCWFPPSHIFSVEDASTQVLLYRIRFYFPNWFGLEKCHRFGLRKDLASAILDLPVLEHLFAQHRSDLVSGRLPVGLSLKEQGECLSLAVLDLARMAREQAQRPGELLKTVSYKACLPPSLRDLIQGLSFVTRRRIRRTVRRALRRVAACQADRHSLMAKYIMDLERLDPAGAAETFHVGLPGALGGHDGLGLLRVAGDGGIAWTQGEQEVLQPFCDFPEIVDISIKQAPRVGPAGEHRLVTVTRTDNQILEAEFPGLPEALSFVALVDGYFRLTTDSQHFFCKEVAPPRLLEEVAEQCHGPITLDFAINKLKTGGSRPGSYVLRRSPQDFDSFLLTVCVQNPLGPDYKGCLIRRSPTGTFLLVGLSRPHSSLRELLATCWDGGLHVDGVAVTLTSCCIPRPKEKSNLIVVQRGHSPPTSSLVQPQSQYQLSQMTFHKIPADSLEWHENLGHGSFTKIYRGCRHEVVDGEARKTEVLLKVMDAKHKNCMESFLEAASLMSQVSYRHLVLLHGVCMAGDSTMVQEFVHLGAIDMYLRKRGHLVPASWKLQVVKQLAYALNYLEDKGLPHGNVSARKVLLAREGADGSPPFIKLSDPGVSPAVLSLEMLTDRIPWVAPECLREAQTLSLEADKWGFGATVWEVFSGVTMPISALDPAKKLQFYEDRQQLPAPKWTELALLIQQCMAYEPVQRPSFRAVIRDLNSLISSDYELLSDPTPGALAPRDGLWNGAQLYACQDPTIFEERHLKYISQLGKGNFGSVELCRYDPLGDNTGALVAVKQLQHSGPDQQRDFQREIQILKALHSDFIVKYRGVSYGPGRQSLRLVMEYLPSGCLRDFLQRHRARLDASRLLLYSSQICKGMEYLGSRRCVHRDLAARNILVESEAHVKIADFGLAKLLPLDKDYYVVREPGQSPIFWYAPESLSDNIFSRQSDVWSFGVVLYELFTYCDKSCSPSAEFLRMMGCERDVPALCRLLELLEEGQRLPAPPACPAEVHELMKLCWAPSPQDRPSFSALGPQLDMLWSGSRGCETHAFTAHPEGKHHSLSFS
Summary of the method: as §1

TYK2 = target: T3, TYK2 (Homo sapiens, UniProt P29597); assay: Kinobeads assay, TYK2; conditions: mixed Molt4/Ramos lysate, read-out: Inhibition values (IC50) TYK2
T3 construct: endogenous in cells; host or cells: Molt4 (ATCC CRL-1582) and Ramos (ATCC CRL-1596), mixed lysate 1:2
T3 sequence (P29597 whole entry): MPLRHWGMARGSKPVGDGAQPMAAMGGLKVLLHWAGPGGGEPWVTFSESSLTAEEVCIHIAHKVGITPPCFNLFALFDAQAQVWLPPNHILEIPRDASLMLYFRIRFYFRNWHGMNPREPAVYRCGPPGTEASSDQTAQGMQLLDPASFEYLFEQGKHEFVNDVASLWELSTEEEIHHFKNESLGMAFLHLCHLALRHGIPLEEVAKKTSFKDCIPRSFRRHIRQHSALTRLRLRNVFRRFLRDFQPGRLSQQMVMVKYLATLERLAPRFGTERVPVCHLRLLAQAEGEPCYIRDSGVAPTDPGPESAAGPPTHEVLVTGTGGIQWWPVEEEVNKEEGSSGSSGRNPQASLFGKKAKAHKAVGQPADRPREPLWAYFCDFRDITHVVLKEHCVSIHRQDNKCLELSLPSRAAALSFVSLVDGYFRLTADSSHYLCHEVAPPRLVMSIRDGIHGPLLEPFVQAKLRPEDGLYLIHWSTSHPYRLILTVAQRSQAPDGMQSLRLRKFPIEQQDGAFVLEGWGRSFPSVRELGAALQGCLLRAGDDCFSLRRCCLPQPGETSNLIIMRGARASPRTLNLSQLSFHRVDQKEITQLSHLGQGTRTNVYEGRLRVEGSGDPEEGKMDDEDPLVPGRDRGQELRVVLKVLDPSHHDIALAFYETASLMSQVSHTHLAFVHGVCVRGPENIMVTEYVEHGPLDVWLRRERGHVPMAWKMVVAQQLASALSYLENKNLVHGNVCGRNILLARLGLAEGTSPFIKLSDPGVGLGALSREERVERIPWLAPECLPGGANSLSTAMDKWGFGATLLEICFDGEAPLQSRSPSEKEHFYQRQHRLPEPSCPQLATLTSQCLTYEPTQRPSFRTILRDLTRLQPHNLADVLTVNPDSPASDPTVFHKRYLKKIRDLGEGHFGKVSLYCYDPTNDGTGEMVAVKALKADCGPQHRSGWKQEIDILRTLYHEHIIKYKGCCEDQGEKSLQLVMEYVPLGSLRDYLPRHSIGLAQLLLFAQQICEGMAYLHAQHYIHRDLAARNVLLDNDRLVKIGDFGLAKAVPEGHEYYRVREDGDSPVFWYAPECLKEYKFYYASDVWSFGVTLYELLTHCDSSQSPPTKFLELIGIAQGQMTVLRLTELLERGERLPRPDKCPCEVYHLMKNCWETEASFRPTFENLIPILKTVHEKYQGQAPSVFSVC
Summary of the method: as §1

T1 sequence (O60674 whole entry): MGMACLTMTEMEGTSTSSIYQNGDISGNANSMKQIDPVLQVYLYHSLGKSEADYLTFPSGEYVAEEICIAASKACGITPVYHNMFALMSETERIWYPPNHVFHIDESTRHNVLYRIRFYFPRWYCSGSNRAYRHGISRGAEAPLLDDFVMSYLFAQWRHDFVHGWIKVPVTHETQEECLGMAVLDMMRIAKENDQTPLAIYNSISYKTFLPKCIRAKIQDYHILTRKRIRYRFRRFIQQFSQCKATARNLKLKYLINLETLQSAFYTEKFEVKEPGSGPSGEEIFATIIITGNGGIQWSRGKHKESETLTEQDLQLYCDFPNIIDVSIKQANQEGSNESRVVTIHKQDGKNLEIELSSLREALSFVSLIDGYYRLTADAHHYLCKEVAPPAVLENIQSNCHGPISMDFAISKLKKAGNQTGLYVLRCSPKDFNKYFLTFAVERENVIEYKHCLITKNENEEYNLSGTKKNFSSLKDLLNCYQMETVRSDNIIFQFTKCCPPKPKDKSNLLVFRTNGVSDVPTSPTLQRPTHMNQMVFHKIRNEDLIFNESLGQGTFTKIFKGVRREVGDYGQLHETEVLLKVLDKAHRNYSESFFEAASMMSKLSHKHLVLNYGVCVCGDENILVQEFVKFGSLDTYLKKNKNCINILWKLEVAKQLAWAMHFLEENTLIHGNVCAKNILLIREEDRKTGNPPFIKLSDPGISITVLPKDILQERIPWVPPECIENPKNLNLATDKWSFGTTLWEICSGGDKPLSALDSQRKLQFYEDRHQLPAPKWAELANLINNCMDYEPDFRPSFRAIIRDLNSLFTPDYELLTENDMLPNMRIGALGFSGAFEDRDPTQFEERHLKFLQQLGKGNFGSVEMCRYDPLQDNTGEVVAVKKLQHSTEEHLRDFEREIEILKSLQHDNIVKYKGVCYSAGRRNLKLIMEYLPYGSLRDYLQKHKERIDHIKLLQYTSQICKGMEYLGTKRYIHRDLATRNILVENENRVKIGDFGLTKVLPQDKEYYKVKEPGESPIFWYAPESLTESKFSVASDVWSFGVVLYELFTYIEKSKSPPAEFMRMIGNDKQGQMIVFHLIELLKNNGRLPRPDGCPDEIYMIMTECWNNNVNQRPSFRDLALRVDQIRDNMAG

Structure (SMILES)	IC50 (JAK2) [µM]	IC50 (JAK3) [µM]	IC50 (TYK2) [µM]
O=C(O)Cn1cc(Nc2ncc(Cl)c(N[C@H](CO)c3ccccc3)n2)cn1 [Compound 24]	≥ 10	< 0.1	1 to 10
Cn1cc(Nc2ncc(Cl)c(N[C@H](C(=O)N3CCCCC3)c3ccccc3)n2)cn1 [Compound 49]	≥ 10	0.1 to 1	≥ 10
